According to US20240270801A1, “EPITOPE PEPTIDE OF HUMAN ALPHA-SYNUCLEIN AND PHARMACEUTICAL COMPOSITION INCLUDING SAID PEPTIDE” (Sumitomo Pharma Co., Ltd., priority 2021, published 2024):
Non-standard residues stand in square brackets, D forms with d. No end group written: not given here. Ahx = NCCCCCC(=O)O

Key:
human αSyn = assay: Antibody-inducing ability in mice: ELISA antibody titer of immune serum with respect to human αSyn; assay type: in vivo, mouse; design: key to Antibody titer with respect to human αSyn, relative to control: log titer relative to control conjugate (control = 1); details: for Antibody titer with respect to human αSyn (N = 4 − 6, mean ± standard deviation): Example 2, serum 2 weeks after second administration
Procedure: (§1) Using the various AJ peptide-human αSyn peptide conjugates produced in Example 1, an antibody-inducing ability with respect to human αSyn in mice was evaluated. The various AJ-human αSyn peptide conjugates (250 μg/mouse) or KLH-DMPVDPDN (25 μg/mouse) in physiological saline were intramuscularly administered to balb/c mice (females, 6 weeks old, CLEA Japan, Inc.) twice at a 2-week interval for immunization using aluminum hydroxide (Alum) (InvivoGen, 50 μg/mouse) as an adjuvant. As a negative control, physiological saline (100 μL/mouse) comprising the same amount of aluminum hydroxide was administered twice. Two weeks after the second administration, serum was recovered to evaluate the antibody titer with respect to human αSyn by ELISA.
ELISA was performed by the following method. 96-well plates were coated with human αSyn (Sigma) at 0.2 μg/well. After washing with PBST (Phosphate Buffered Saline comprising 0.05% Tween) once, blocking was performed with 3% skim milk (FUJIFILM Wako Pure Chemical Corporation). After washing with PBST three times, diluted serum was added to cause a reaction at room temperature for 1 hour. Furthermore, after washing with PBST three times, Goat anti-mouse IgG-HRP (abcam) was added to cause a reaction at room temperature for 1 hour. After washing with PBST three times, SureBlue TMB Microwell Peroxidase Substrate (KPL) was added to cause a reaction at room temperature for 10 minutes while light shielding. An equal volume of a TMB Stop Solution (KPL) was added to stop the reaction, and the absorbance at 450 nm was measured. ELISA with respect to aggregated human αSyn was performed by coating with the aggregated human αSyn (Stress Marq) at 15 ng/well instead of human αSyn in the above-mentioned method. […]
The antibody-inducing ability of the produced various human αSyn peptide conjugates with respect to human αSyn and aggregated human αSyn in the mice was evaluated by the method described in Example 2 using the antibody titers with respect to human αSyn and aggregated human αSyn of the mouse immune serum. […] In Table 6, the antibody titer of AJ-p242, AJ-p244, AJ-p347, or AJ-p361 is shown with the antibody titer of AJ-p150 as a control being 1 (logarithm). In addition, the antibody titers of AJ-p229, AJ-p237, and AJ-p298 are shown with the antibody titer of AJ-p54 as a control being 1 (logarithm). […]

aggregated human αSyn [1] = assay: Antibody-inducing ability in mice: ELISA antibody titer of immune serum with respect to aggregated human αSyn; assay type: in vivo, mouse; details: for Antibody titer with respect to aggregated human αSyn (N = 4 − 6, mean ± standard deviation): Example 2, serum 2 weeks after second administration; for Antibody titer with respect to aggregated human αSyn, relative to control: mice
Procedure: as §1
ELISA was performed by the following method. 96-well plates were coated with human αSyn (Sigma) at 0.2 μg/well. After washing with PBST (Phosphate Buffered Saline comprising 0.05% Tween) once, blocking was performed with 3% skim milk (FUJIFILM Wako Pure Chemical Corporation). After washing with PBST three times, diluted serum was added to cause a reaction at room temperature for 1 hour. Furthermore, after washing with PBST three times, Goat anti-mouse IgG-HRP (abcam) was added to cause a reaction at room temperature for 1 hour. After washing with PBST three times, SureBlue TMB Microwell Peroxidase Substrate (KPL) was added to cause a reaction at room temperature for 10 minutes while light shielding. An equal volume of a TMB Stop Solution (KPL) was added to stop the reaction, and the absorbance at 450 nm was measured. ELISA with respect to aggregated human αSyn was performed by coating with the aggregated human αSyn (Stress Marq) at 15 ng/well instead of human αSyn in the above-mentioned method.
The antibody-inducing ability of the AJ-human αSyn peptide conjugates (AJ-p54, AJ-p54-KLH, and AJ-DMPVDPDN) produced in Example 1 with respect to human αSyn and aggregated human αSyn in mice was evaluated. Physiological saline or the AJ-human αSyn peptide conjugate (250 μg/mouse) was intramuscularly administered to balb/c mice (females, 6 weeks old, CLEA Japan, Inc.) twice at a 2-week interval using Alum (InvivoGen, 50 μg/mouse) as an adjuvant. Furthermore, KLH-DMPVDPDN (25 μg/mouse) was administered using Alum (InvivoGen, 50 μg/mouse) as an adjuvant. Two weeks after the second administration, serum was recovered to evaluate the antibody titer by ELISA. ELISA was performed by the method described in Example 2.
The antibody-inducing ability of the produced various human αSyn peptide conjugates with respect to human αSyn and aggregated human αSyn in the mice was evaluated by the method described in Example 2 using the antibody titers with respect to human αSyn and aggregated human αSyn of the mouse immune serum. […] In Table 6, the antibody titer of AJ-p242, AJ-p244, AJ-p347, or AJ-p361 is shown with the antibody titer of AJ-p150 as a control being 1 (logarithm). In addition, the antibody titers of AJ-p229, AJ-p237, and AJ-p298 are shown with the antibody titer of AJ-p54 as a control being 1 (logarithm).
The antibody-inducing ability of the AJ-human αSyn peptide conjugates with a modified linker with respect to human αSyn and aggregated human αSyn in the mice was evaluated using the antibody titers with respect to human αSyn and aggregated human αSyn of the mouse immune serum. […] In Table 8, the antibody titers of the AJ-human αSyn peptide conjugates with various modified linkers comprising p54 are shown with the antibody titer of AJ-p54 as a control being 1 (logarithm). In addition, the antibody titers of the AJ-human αSyn peptide conjugates with various modified linkers comprising p150 are shown with the antibody titer of AJ-p150 as a control being 1 (logarithm).

aggregated human αSyn [2] = molecular target: aggregated human αSyn (Homo sapiens, UniProt P37840); assay: Aggregated human αSyn-neutralizing effect of antibody induced in mice: phosphorylation of human αSyn in SH-SY5Y cells; assay type: cell-based; design: purchased Stress Marq (StressMarq Biosciences Inc.); details: antibody (100 μg/mL) induced in C57BL/6 mice by the vaccine; FIG. 1B, isotype control = 100
Procedure: The aggregated human αSyn-neutralizing effect of the antibody induced in the mice by the AJ-human αSyn peptide conjugate (AJ-p54) produced in Example 1 was evaluated. Physiological saline or the AJ-human αSyn peptide conjugate (250 μg/mouse) was intramuscularly administered to C57BL/6 mice (males, 6 weeks old, CLEA Japan, Inc.) four times at a 2-week interval using CFA (DIFCO) as an adjuvant. Furthermore, KLH-DMPVDPDN (25 μg/mouse) was administered using Alum (InvivoGen, 50 μg/mouse) as an adjuvant. Two weeks after the fourth administration, serum was recovered. After recovering the antibodies comprised in the serum by Protein G HP SpinTrap (Cytiva), the human αSyn- and aggregated human αSyn-neutralizing effect was evaluated by a method described below.
As the human αSyn- and aggregated human αSyn-neutralizing effect, the influence on phosphorylation of human αSyn in SH-SY5Y cells (ATCC) was evaluated. The SH-SY5Y cells were seeded in a 96-well plate at 2×10^4 cells/well and cultured under the conditions of 37° C. and 5% CO2. […] After fixing the cells with a 4% paraformaldehyde/phosphate buffer solution (FUJIFILM Wako Pure Chemical Corporation), phosphorylated human αSyn was stained with a fluorescence-labeled anti-phosphorylated αSyn antibody (Cell Signaling). The amount of phosphorylated human αSyn was evaluated by image analysis using ArrayScan (Thermo Fisher Scientific Inc.). […]

aggregated human αSyn [3] = assay: Antibody-inducing ability in cynomolgus monkeys: ELISA antibody titer with respect to aggregated human αSyn; assay type: in vivo; details: i.m. three times at 2-week interval, Alum; AJ conjugates 2,000 μg/monkey, KLH-DMPVDPDN 75 μg/monkey; FIG. 4B
Procedure: The antibody-inducing ability of the AJ-human αSyn peptide conjugate with respect to human αSyn and aggregated human αSyn in cynomolgus monkeys was evaluated. The AJ-human αSyn peptide conjugates (AJ-p54, AJ-p150, AJ-p283, AJ-p142, and AJ-p273) (2,000 μg/monkey) and KLH-DMPVDPDN (75 μg/monkey) were intramuscularly administered to cynomolgus monkeys (males, 3 to 7 years old, SNBL, Ltd.) three times at a 2-week interval using Alum (InvivoGen, 200 μg/monkey) as an adjuvant. Blood was collected before administration and 4, 6, 8, and 10 weeks after the first administration to recover the serum. ELISA was performed by the following method.
96-well plates were coated with human αSyn (Sigma-Aldrich) or aggregated human αSyn (StressMarq Biosciences Inc.) at 0.2 μg/well or 15 ng/well. After washing with PBST once, blocking was performed with 3% skim milk (FUJIFILM Wako Pure Chemical Corporation). After washing with PBST three times, diluted serum was added to cause a reaction at room temperature for 1 hour. Furthermore, after washing with PBST three times, Goat anti-Monkey IgG-HRP (Bio-Rad Laboratories, Inc.) was added to cause a reaction at room temperature for 1 hour. […] An equal volume of a TMB Stop Solution (KPL) was added to stop the reaction, and the absorbance at 450 nm was measured.

[4] = balb/c mice, i.m. twice at 2-week interval, Alum, AJ conjugates 250 μg/mouse, KLH-DMPVDPDN 25 μg/mouse
[5] = Example 4, balb/c mice, i.m. twice at 2-week interval, Alum, AJ conjugates 250 μg/mouse, KLH-DMPVDPDN 25 μg/mouse

With “ELKLIFLHRLKRLRKRLKRKXKKDQLGKNE (ELKLIFLHRLKRLRKRLKRK[Ahx]KKDQLGKNE) [AJ-p54, AJ peptide linked to p54 via ε-Acp (X)]” as the sequence, how does the “Antibody titer with respect to human αSyn (N = 4 − 6, mean ± standard deviation)” value (human αSyn; [4]) read?
Its value is 4096 ± 2896.

What about the “Induction of the antibody to human αSyn (in words)” value (human αSyn; Example 3, mice) of the same sequence?
The value was “induced to the same extent”.

And the “Antibody titer (N = 4 − 6, mean ± standard deviation) with respect to human αSyn” value (human αSyn; Example 3, mice, same manner as Example 2)?
Its value is 1434 ± 1510.

And the “Induction of the antibody to human αSyn (in words)” value (human αSyn; Example 4, balb/c mice)?
Its value is “induced”.

What about the “Antibody titer with respect to human αSyn (mean ± standard deviation)” value (human αSyn; [5]) of the same sequence?
Its value is 1434 ± 1510.

What about the “Antibody titer with respect to human αSyn, relative to control” value (human αSyn; Example 9, mice, N = 4, titer of AJ-p150 or AJ-p54 as control being 1 (logarithm)) of the same sequence?
Its value is 1.

What about the “Antibody titer with respect to human αSyn, relative to control” value (human αSyn; Example 10, modified linker, mice, titer of AJ-p54 or AJ-p150 as control being 1 (logarithm)) of the same sequence?
Its value is 1.

What about the “Antibody titer with respect to aggregated human αSyn (N = 4 − 6, mean ± standard deviation)” value (aggregated human αSyn [1]; [4]) of the same sequence?
Its value is 768 ± 862.

And the “Induction of the antibody to aggregated human αSyn (in words)” value (aggregated human αSyn [1]; Example 4, balb/c mice)?
The value was “induced”.

What about the “Antibody titer with respect to aggregated human αSyn (mean ± standard deviation)” value (aggregated human αSyn [1]; [5]) of the same sequence?
The value was 768 ± 296.

What about the “Antibody titer with respect to aggregated human αSyn, relative to control” value (aggregated human αSyn [1]; Example 9, N = 4, titer of AJ-p150 or AJ-p54 as control being 1 (logarithm)) of the same sequence?
Its value is 1.

What about the “Antibody titer with respect to aggregated human αSyn, relative to control” value (aggregated human αSyn [1]; Example 10, modified linker, titer of AJ-p54 or AJ-p150 as control being 1 (logarithm)) of the same sequence?
The value was 1.

And the “Phosphorylation of human αSyn in SH-SY5Y cells to which aggregated human αSyn was added” value (aggregated human αSyn [2])?
Its value is “inhibited”.

“ELKLIFLHRLKRLRKRLKRKXKKTQLGKND (ELKLIFLHRLKRLRKRLKRK[Ahx]KKTQLGKND) [AJ-p273]” was tested. Which “Antibody titer with respect to human αSyn (N = 4 − 6, mean ± standard deviation)” value (human αSyn; [4]) did it give?
The value was 3328 ± 3278.

What about the “Antibody titer with respect to aggregated human αSyn (N = 4 − 6, mean ± standard deviation)” value (aggregated human αSyn [1]; [4]) of the same sequence?
Its value is 704 ± 896.

And the “Induction of the antibody to aggregated human αSyn in cynomolgus monkeys” value (aggregated human αSyn [3])?
Its value is “not induced”.
